Measurements: patent US6034097A, “Isoquinolines useful as analgesics” (Astra AB, priority 1996, dated 2000)
Where a name gives a salt, the structure may show the parent alone.

Columns and labels:
κ receptor = biological target: T1, κ receptor (Rattus norvegicus, UniProt P34975); experiment: Radioligand binding assay, κ receptor (Table 1); conditions: binding inhibition constant
T1 construct: from tissue

μ receptors [1] = experiment: Guinea Pig Ileum (GPI) assay, longitudinal muscle preparation; format: cell-based
Experimental: (§1) The opioid activity of the peptides was assessed in vitro using the guinea pig ileum (GPI) longitudinal muscle preparation and their antinociceptive activity was determined in vivo in PBQ induced writhing models (peripheral activity) and in the hot-plate test (central activity) in rodents. […] Peripheral analgesia is shown by a high potency in the writhing test coupled with a low potency in the hot-plate test.
(§2) PBQ (phenyl-.rho.-benzoquinone) induced writhing in mice is an assessment of both central and peripheral analgesia. For experimental protocol see Sigmund et al., Proc. Soc. Exp. Biol. Med., 15, p. 729(1957) which is incorporated herein by reference. Central analgesia is determined by the inhibition of a hot-plate response in mice. For experimental protocol see G. Woolfe and A. Macdonald, J. Pharmacol. Exp. Ther., 80, p.300 (1944) which is incorporated herein by reference. Assays measuring opioid receptor binding affinities for μ and δ receptors as well as GPI and MVD assays are determined through experimental protocol set out in Schiller et al., Biophys. Res. Commun., 85, p.1322 (1975) incorporated herein by reference.
The activity of the peptide compounds on μ receptors was determined using the Guinea Pig Ileum (GPI) assay (longitudinal muscle preparation) according to the procedures described in Schiller et al., Biophys. Res. Commun., 85, p.1322 (1975).

[2] = tested on: kidney brush border protease (KBBP); experiment: In vitro stability in kidney brush border protease (KBBP) at 37° C.; format: in vitro ADME; conditions: PBS pH 7.4, 37° C.; for Metabolites in KBBP: up to 1440 minutes
Experimental: (§3) In vitro stability of the compounds of the invention in rat whole blood (RWB) at 37° C. and in kidney brush border protease (KBBP) at 37° C.
1.0 mg of the compounds were dissolved in 1 ml PBS pH 7.4 and 500 µL of proteases (1.14 mg of protein/ml) were added.
An initial aliquot was taken at time 0, and the reaction was immediately stopped by placing the sample in a bath of boiling water for 2 minutes (the other time intervals were 5, 15, 30, 60, 120, 1440 minutes).
Blank samples without compounds were also prepared.
The aliquoted samples were filtered on a micron 0.45 filter and the resulting sample were analyzed by HPLC.

CD #1 male mice = experiment: PBQ (phenylquinone) induced writhing assay in mice; format: in vivo; conditions: compound by subcutaneous route, dose inducing 50% reduction in number of writhes vs control
Experimental: The term "ED50 " as shown in table 1 for the PBQ writhing assays is defined as the dose of drug which induces a 50% reduction in the number of writhes observed compared to the control. The term "ED50 " used in the hot-plate assays is defined as the dose of drug required to increase the latency of response 2-fold compared to controls and was determined by parallel-line probit analysis.
as §1, §2
The test was performed on CD #1 male mice weighing between 18 and 22 g. The mice were weighed and marked. They were injected, by intra-peritoneal route, with 0.3 ml/20 g by weight with a solution of phenylquinone at 0.02%. The contortions which appeared during a 15 minute time period following the injection were counted. The phenylquinone was injected at time intervals of 5, 20 or 60 minutes after administration of the compound (or medium, or standard) by subcutaneous route.
The 0.02% phenylquinone solution was prepared in the following fashion. […]

μ receptors [3] = biological target: T2, μ receptors (Rattus norvegicus, UniProt P33535); experiment: Radioligand binding assay, μ receptor, (3H)-DAMGO, rat brain membranes; conditions: Ki from IC50 by Cheng and Prusoff
T2 construct: the brains minus cerebellum were removed and place in ice-cold saline solution and then homogenized; from tissue; host or cells: rat brain minus cerebellum, membrane homogenate
Experimental: as §2
(§4) Male Sprague-Dawley rats weighing between 350-450 g were sacrificed by inhalation of CO2. The rats were decapitated and the brains minus cerebellum were removed and place in ice-cold saline solution and then homogenized in ice-cold 50 mM Tris buffer pH 7.4 (10 ml/brain). The membranes were centrifuged at 14000 rpm for 30 min. at 4° C. The pellets were re-suspended in approximately 6 ml/brain of ice-cold Tris buffer 50 mM pH 7.4 and stored at -78° C. until ready for use. Protein quantification of the brain homogenate was conducted according to protein assay kit purchased (Bio-Rad).
(§5) (^3 H)-DAMGO and (^3 H) DAGLE were used as radioligands for the μ and δ receptors, respectively. Radioligand 50 μl, membranes 100 μl and serially diluted test compound were incubated for 1 hr at 22° C. Non specific binding was determined using 500 fold excess of unlabeled ligand in the presence of tracer and membranes. Free ligand was separated from bound by filtration through Whatman GF/B paper (presoaked in polyethylenimine 1% aqueous solution) and rinsing with ice-cold 50 mM Tris pH 7.4 using a Brandel cell harvester. The filters were dried and radioactivity was counted in a 24 well microplate in the presence of […] scintillant per well. Radioactivity was measured using a Wallac 1450 Microbeta counter.
(§6) Ki's for the various compounds were determined from the IC50 according to the Cheng and Prusoff equation.

δ receptors = biological target: T3, δ receptors (Rattus norvegicus, UniProt P33533); experiment: Radioligand binding assay, δ receptor, (3H) DAGLE, rat brain membranes; conditions: Ki from IC50 by Cheng and Prusoff
T3 construct: the brains minus cerebellum were removed and place in ice-cold saline solution and then homogenized; from tissue; host or cells: rat brain minus cerebellum, membrane homogenate
Experimental: as §2, §4
as §5, with “Free ligand was separated from bound by filtration through Whatman GF/B paper (presoaked in polyethylenimine 1% aqueous solution) and rinsing with ice-cold 50 mM Tris pH 7.4 using a Brandel cell harvester.” left out
as §6

[4] = In vitro stability in rat whole blood (RWB) at 37° C.; format: in vitro ADME
Experimental: as §3
The compound was initially dissolved in water or in 10% methyl sulfoxide (DMSO)/water to make a stock solution of 10 mg/ml.
The stock solution was added to 15 ml of freshly harvested rat whole blood and incubated at 37° C.
Blanks were prepared without spiking with compounds in rat whole blood.
Aliquots were then taken at specific time intervals, centrifuged, and a fraction of the supernatant was extracted with acetonitrile or with a solution of acetonitrile and 10% acetic acid.
The solvent(s) was(were) removed by evaporation. The resulting residue was analyzed by HPLC.

T1 sequence (P34975 whole entry): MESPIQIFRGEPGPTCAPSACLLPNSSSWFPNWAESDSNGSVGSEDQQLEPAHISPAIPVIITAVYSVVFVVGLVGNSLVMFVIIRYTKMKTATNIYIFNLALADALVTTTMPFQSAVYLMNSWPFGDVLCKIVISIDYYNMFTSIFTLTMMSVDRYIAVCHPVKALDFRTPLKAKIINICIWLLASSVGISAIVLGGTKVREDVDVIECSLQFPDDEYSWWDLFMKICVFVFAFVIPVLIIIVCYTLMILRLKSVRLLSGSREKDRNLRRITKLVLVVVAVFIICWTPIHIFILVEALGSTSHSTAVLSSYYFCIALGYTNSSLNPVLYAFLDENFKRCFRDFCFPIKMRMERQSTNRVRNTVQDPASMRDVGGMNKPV
T2 sequence (P33535 whole entry): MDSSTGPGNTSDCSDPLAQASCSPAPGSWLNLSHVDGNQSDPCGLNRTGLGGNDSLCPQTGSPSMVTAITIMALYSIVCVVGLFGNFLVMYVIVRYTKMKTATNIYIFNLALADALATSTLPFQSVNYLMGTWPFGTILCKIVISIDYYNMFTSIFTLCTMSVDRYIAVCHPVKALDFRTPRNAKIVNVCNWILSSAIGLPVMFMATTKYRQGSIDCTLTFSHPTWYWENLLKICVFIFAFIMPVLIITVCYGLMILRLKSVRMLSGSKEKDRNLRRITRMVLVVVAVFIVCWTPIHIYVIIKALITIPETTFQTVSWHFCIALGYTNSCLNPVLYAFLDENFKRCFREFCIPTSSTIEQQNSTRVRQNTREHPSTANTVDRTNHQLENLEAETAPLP
T3 sequence (P33533 whole entry): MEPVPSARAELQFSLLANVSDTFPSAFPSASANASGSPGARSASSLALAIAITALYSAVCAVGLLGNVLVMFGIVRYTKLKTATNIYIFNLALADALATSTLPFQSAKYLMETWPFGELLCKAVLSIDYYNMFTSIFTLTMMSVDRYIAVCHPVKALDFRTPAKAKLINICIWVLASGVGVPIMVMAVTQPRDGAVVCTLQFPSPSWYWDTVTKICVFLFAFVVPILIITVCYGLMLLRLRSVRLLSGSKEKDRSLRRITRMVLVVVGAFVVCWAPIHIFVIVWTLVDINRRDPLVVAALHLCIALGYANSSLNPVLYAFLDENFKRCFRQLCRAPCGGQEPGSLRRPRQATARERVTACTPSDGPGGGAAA

SMILES | IC50 (μ receptors [1]) | half life in KBBP [2] | Metabolites in KBBP [2] | ED50 PBQ writhing (CD #1 male mice) | Ki (δ receptors) | Metabolites in RWB [4] | half life in RWB [4] | also measured
Cc1cc(O)cc(C)c1C[C@H](N)C(=O)N1Cc2ccccc2C[C@H]1C(=O)NCC(O)Cc1ccccc1.O=C(O)C(F)(F)F (stereo partly drawn) [4B, 2-S-(2-Amino-3-(4-hydroxy-2,6-dimethyl-phenyl)-propionyl)-1,2,3,4-tetrahydro-isoquinoline-3-S-carboxylic acid (2-hydroxy-3-phenyl-propyl)amide trifluoroacetic salt] | 13.8 nM | > 24 h | none detected | 16.6 mg/kg | 0.1 ± 0.02 nM | none detected | > 5.32 h | Ki (κ receptor): 20.6 ± 0.5 nM; Ki (μ receptors [3]): 0.7 ± 0.27 nM
Cc1cc(O)cc(C)c1CC(NC(=N)N)C(=O)N1Cc2ccccc2C[C@H]1C(=O)NC[C@H](O)Cc1ccccc1 (some centres unmarked) [compound #3, 2-(2-Guanidino-3-(4-hydroxy-2,6-dimethyl-phenyl)-propionyl)-1,2,3,4-tetrahydro-isoquinoline-3-S-carboxylic acid (2-R-hydroxy-3-phenyl-propyl)-amide ditrifloroacetic salt] | – | – | – | – | 0.56 ± 0.09 nM | – | – | Ki (κ receptor; listed as #3): 277 ± 13.6 nM; Ki (μ receptors [3]; listed as #3): 2.03 ± 0.37 nM
Cc1cc(O)cc(C)c1CC(NC(=N)N)C(=O)N1Cc2ccccc2C[C@H]1C(=O)NC[C@H](O)Cc1ccccc1.O=C(O)C(F)(F)F.O=C(O)C(F)(F)F (some centres unmarked) [compound #3A, 2-(2-Guanidino-3-(4-hydroxy-2,6-dimethyl-phenyl)-propionyl)-1,2,3,4-tetrahydro-isoquinoline-3-S-carboxylic acid (2-R-hydroxy-3-phenyl-propyl)-amide ditrifloroacetic salt] | – | – | – | 3.8 mg/kg | – | – | – | Ki (κ receptor; listed as #3A): 952 ± 122 nM; Ki (μ receptors [3]; listed as #3A): 2.94 ± 0.73 nM
Cc1cc(O)cc(C)c1CC(NC(=N)N)C(=O)N1Cc2ccccc2C[C@H]1C(=O)NC[C@H](O)Cc1ccccc1 (some centres unmarked) [compound #3B, 2-(2-Guanidino-3-(4-hydroxy-2,6-dimethyl-phenyl)-propionyl)-1,2,3,4-tetrahydro-isoquinoline-3-S-carboxylic acid (2-R-hydroxy-3-phenyl-propyl)-amide ditrifloroacetic salt] | 7.3 nM | – | – | – | – | – | – | Ki (κ receptor; listed as #3B): 164 ± 17.5 nM; Ki (μ receptors [3]; listed as #3B): 0.5 nM
Cc1cc(O)cc(C)c1C[C@H](N)C(=O)N1Cc2ccccc2C[C@H]1C(=O)NCC(O)Cc1ccccc1.O=C(O)C(F)(F)F (stereo partly drawn) [compound #4A, 2-S-(2-Amino-3-(4-hydroxy-2,6-dimethyl-phenyl)-propionyl)-1,2,3,4-tetrahydro-isoquinoline-3-S-carboxylic acid (2-hydroxy-3-phenyl-propyl)amide trifluoroacetic salt] | – | > 24 h | 1 detected after | – | – | none detected | > 2.1 h | –
Cc1cc(O)cc(C)c1CC(N)C(=O)N1Cc2ccccc2C[C@H]1C(=O)NCCCc1ccccc1.O=C(O)C(F)(F)F (some centres unmarked) [compound #5A, 2-(2-Amino-3-(4-Hydroxy-2,6-dimethyl-phenyl)-propionyl)-1,2,3,4-tetrahydro-isoquinoline-3-S-carboxylic acid (3-phenyl-propyl)amide trifluoroacetic salt] | – | > 24 h | none detected | – | – | none detected | > 24 h | –
Cc1cc(O)cc(C)c1CC(N)C(=O)N1Cc2ccccc2CC1C(=O)NCCCc1ccccc1.O=C(O)C(F)(F)F (centres unmarked) [compound #5B, 2-(2-Amino-3-(4-Hydroxy-2,6-dimethyl-phenyl)-propionyl)-1,2,3,4-tetrahydro-isoquinoline-3-carboxylic acid (3-phenyl-propyl)amide trifluoroacetic salt] | – | > 24 h | none detected | – | – | none detected | > 20 h | –
Cc1cc(O)cc(C)c1CC(N)C(=O)N1Cc2ccccc2C[C@H]1C(=O)NCCCc1ccccc1.O=C(O)C(F)(F)F (some centres unmarked) [compound #6A, 2-(2-Amino-3-(4-Hydroxy-2,6-dimethyl-phenyl)-propionyl)-1,2,3,4-tetrahydro-isoquinoline-3-S-carboxylic acid (3-phenyl-propyl)amide trifluoroacetic salt] | 5.1 nM | – | – | 2.4 mg/kg | 0.84 ± 0.08 nM | – | – | Ki (κ receptor): 49.6 ± 8.7 nM; Ki (μ receptors [3]): 0.11 ± 0.02 nM
